{"source": "patent US7368582B2", "about": "“Amidomethyl-substituted 2-(4-sulfonylamino)-3-hydroxy-3,4-dihydro-2H-chromen-6-yl compounds, a process and intermediates for their production, and pharmaceutical compositions containing them” (Solvay Pharmaceuticals GmbH, priority 2003, dated 2008)", "key": {"[1]": {"test_system": "left atrium of rats' hearts", "experiment": "Functional refractory period prolongation on isolated left atria of rats' hearts in vitro", "parameters": "species or system rat (Sprague-Dawley)", "details": "10 μM", "procedure": "3. Investigation of the Functional Effectiveness of the Substances on the Atrium of Rats' Hearts in Vitro\nIn this test model it is determined to what extent the Kv 1.5-blocking substances of Formula I result in a prolongation of the functional refractory period in the left atrium of rats. The refractory period is the minimum possible elapsed time between the basic stimulus and additional stimulus in which a renewed contraction can be triggered. The extent of the prolongation of the functional refractory period is a measurement of the antiarrhythmic effectiveness of the substances according to the invention. The functional refractory period is determined by testing on the electrically stimulated preparation at what elapsed time from the preceding contraction a renewed contraction can be triggered by additional electrical stimuli.\nThe hearts were removed from freshly sacrificed rats (Sprague-Dawley, Charles-River, Germany). The left atria were isolated and fastened to force transducers in a temperature-controlled (30° C.), gasified (O2 95%, CO2 5%) organ bath which was filled with modified Tyrode solution (all values in mM: NaCl 137; KCl 2.7; CaCl2 1.8; MgCl2 0.8; NaHCO3 11.9; NaH2PO4 0.6; glucose 5). In order to trigger regular contractions, the preparations were electrically stimulated (rectangular pulses, pulse magnitude 3.5× threshold stimulus, pulse width 1.5 ms, frequency 1 Hz). Initially, the initial value of the functional refractory period was determined by applying extra pulses in addition to the basic stimulus, the elapsed time from the preceding basic stimulus being shortened until no further additional contraction could be triggered. Then the cumulative addition of increasing concentrations (0.1-10 μM) of the substances of Formula I took place at intervals of 20 min. each, the refractory period being determined again in each case 18 min. after the addition had taken place. Before the measurement, stock solutions of the test substances (3.2 and 0.32 mM in 100% DMSO) were prepared. In order to achieve the desired final concentrations of the substances (0.1-10 μM) in the organ bath (volume 100 ml), corresponding volumes of these stock solutions were then poured into the organ bath.\nIn each case the prolongation of the functional refractory period (FRP) in the left atrium of the rats' hearts in milliseconds observed after the addition of 10 μM of the respective substance of Formula I to the atrial preparations was given as characteristic variable."}, "Kv 1.3-potassium channel": {"target": "T1, Kv 1.3-potassium channel (Homo sapiens, UniProt P22001)", "T1 construct": "expressed in transfected cells; host or cells: CHO cells, stably transfected with the Kv 1.3 plasmid using DMRIE-C", "T1 sequence (P22001 whole entry)": "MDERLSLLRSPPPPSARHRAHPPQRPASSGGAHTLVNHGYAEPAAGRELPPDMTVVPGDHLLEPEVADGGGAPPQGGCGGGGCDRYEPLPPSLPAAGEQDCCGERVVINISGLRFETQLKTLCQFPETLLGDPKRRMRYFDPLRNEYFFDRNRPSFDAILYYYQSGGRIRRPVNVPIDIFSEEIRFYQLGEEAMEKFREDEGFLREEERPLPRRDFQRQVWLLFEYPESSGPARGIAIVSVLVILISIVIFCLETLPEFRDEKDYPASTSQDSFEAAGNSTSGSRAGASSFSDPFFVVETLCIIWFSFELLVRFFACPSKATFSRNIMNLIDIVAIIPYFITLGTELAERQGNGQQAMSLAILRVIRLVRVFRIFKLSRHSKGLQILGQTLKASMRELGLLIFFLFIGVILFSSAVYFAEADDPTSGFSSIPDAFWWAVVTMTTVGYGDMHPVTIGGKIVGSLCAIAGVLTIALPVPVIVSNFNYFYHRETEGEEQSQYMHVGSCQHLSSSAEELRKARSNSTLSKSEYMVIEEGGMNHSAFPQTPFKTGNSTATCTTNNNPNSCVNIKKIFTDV", "experiment": "In-vitro Kv 1.3-potassium channel-blocking effect (membrane potential-sensitive fluorescent dye in transfected CHO cells)", "type": "cell-based", "details": "10 μM test substance; CHO cells transfected with Kv 1.3; relative to reference margatoxin", "source_text": "2. In-Vitro Investigation of the Kv 1.3-Potassium Channel-Blocking Effect of the Substances\nIn this test model, known oocytes of the Chinese hamster (═CHO) are used which are stably transfected with the Kv 1.3-potassium channel. The blockade of the cell-inherent Kv 1.3-potassium channel activity in the transfected cells is accompanied by a positive shift in the membrane potential from approx. −40 mV to −30 mV, whereas in the wild-type CHO cells investigated in parallel no significant shift in the membrane potential is triggered. A change in the membrane potential is thus connected to the reduction in the Kv 1.3-potassium channel activity. By blocking the Kv 1.3-potassium channels e.g. with substances of Formula I and the resulting change in the membrane potential, an accumulation of a membrane potential-sensitive fluorescent dye in intracellular compartments of the oocytes and ultimately increasing fluorescence occurs. The change in the membrane potential of the oocytes is therefore measured indirectly via the increase in fluorescence of the membrane potential-senstive dyes.\nThe cells were transfected with the Kv 1.3 plasmid in known manner with a commercially obtainable transfection reagent (DMRIE-C from Gibco BRL, Germany). The successful transfection was verified by immunofluorescence and by “patch-clamp” investigations of the potassium ion current. The fluorescence measurements were performed on a Tecan Safire fluorescence reader from Tecan, Germany. In each case, the increase in the fluorescent intensity caused by the blockade of the Kv 1.3-potassium channels in the oocytes with substances of Formula I in a concentration of 10 μM was determined as characteristic variable. The increase in the fluorescent intensity was given in each case in percent (%) compared with an increase in the fluorescent intensity caused by the reference substance margatoxin. Margatoxin is known as a selective Kv 1.3-potassium channel blocker (see e.g. M. Garcia-Calvo et al., J. Biol. Chem. 268 (1993) 18866-18874)."}, "[2]": {"test_system": "hearts of anaesthetised cats", "experiment": "Atrial and ventricular fibrillation threshold in anaesthetised cats in vivo", "parameters": "species or system cat", "details": "anaesthetized cats, dose 30 μmol/kg i.v.; for AFT (increase in the atrial fibrillation threshold) / VFT (increase in the ventricular fibrillation threshold): percent of value before administration", "source_text": "5. Investigation of the Functional Effectiveness of the Substances on the Hearts of Anaesthetised Cats in Vivo\nIn the test model shown below, it was shown that the substances according to the invention at most have a marked atrial-selective effect on the heart. After administration of the substances according to the invention, a significant increase in the atrial fibrillation threshold—i.e. the current intensity at which atrial fibrillation occurs—was observed. At the same time, on the other hand, the ventricular fibrillation threshold is influenced only minimally.\nLiving cats were anaesthetised with chloralose/urethane (50/300 mg/kg i.v.) and were ventilated with ambient air. Then, following thoracotomy, stimulating electrodes were attached to the right atrium and the ventricle. The atrial and ventricular fibrillation threshold was determined in known manner by administration of rectangular pulses of increasing current intensity until atrial or ventricular fibrillation occurred (for performance see in detail: Br. J. Pharmac. 17 (1961) 167; Hdb. exp. Pharmacol. XVI/3 (1975) 131; Pharmacol. Res. 25 Suppl. 2 (1992) 156). The test substances of Formula I were dissolved in propylene glycol (80%) and administered intravenously in increasing doses (5-30 μmol/kg). Atrial and ventricular fibrillation thresholds were then determined at 5-minute intervals in known manner after the addition of the respective dose. The increase in the respective fibrillation threshold due to the substances investigated was expressed in percent of the value before administration of substance, i.e. a doubling of the fibrillation threshold corresponds to an increase of 100%."}}}
{"smiles": "CCc1ccc(S(=O)(=O)N(CC(C)(C)C)[C@@H]2c3cc(CC(=O)NCc4ccccc4)ccc3OC(C)(C)[C@H]2O)cc1", "note": "[Example 7]", "values": [{"measurement": "FRP prolongation", "setting": "[1]", "result": 24, "unit": "ms"}]}
{"smiles": "CCc1ccc(S(=O)(=O)N[C@@H]2c3cc(CC(=O)N[C@@H]4CCCc5ccccc54)ccc3OC(C)(C)[C@H]2O)cc1", "note": "[Example 2, 2-((3S,4R)-4-{[(4-ethylphenyl)sulfonyl]amino}-3-hydroxy-2,2-dimethyl-3,4-dihydro-2H-chromen-6-yl)-N-[(1R)-1,2,3,4-tetrahydronaphth-1-yl]acetamide]", "values": [{"measurement": "Increase in the fluorescent intensity (% margatoxin)", "setting": "Kv 1.3-potassium channel", "result": 72, "unit": "% margatoxin"}, {"measurement": "FRP prolongation", "setting": "[1]", "result": 20, "unit": "ms"}, {"measurement": "Selectivity factor (AFT:VFT)", "setting": "[2]", "result": 17}, {"measurement": "AFT (increase in the atrial fibrillation threshold)", "setting": "[2]", "result": 261, "unit": "%"}, {"measurement": "VFT (increase in the ventricular fibrillation threshold)", "setting": "[2]", "result": 15, "unit": "%"}]}
{"smiles": "CCc1ccc(S(=O)(=O)N(CC(C)(C)C)C2c3cc(CC(=O)NCCc4ccccc4)ccc3OC(C)(C)C2O)cc1", "note": "(stereo not drawn) [Example 10]", "values": [{"measurement": "Increase in the fluorescent intensity (% margatoxin)", "setting": "Kv 1.3-potassium channel", "result": 82, "unit": "% margatoxin"}, {"measurement": "FRP prolongation", "setting": "[1]", "result": 20, "unit": "ms"}, {"measurement": "Selectivity factor (AFT:VFT)", "setting": "[2]", "result": 13}, {"measurement": "AFT (increase in the atrial fibrillation threshold)", "setting": "[2]", "result": 241, "unit": "%"}, {"measurement": "VFT (increase in the ventricular fibrillation threshold)", "setting": "[2]", "result": 19, "unit": "%"}]}
{"smiles": "CCc1ccc(S(=O)(=O)NC2c3cc(CC(=O)N4CCN(c5ccccc5)CC4)ccc3OC(C)(C)C2O)cc1", "note": "(stereo not drawn) [Example 16]", "values": [{"measurement": "FRP prolongation", "setting": "[1]", "result": 20, "unit": "ms"}]}
{"smiles": "CCc1ccc(S(=O)(=O)N[C@@H]2c3cc(CC(=O)N[C@H]4CCCc5ccccc54)ccc3OC(C)(C)[C@H]2O)cc1", "note": "[Example 9]", "values": [{"measurement": "Increase in the fluorescent intensity (% margatoxin)", "setting": "Kv 1.3-potassium channel", "result": 107, "unit": "% margatoxin"}, {"measurement": "FRP prolongation", "setting": "[1]", "result": 30, "unit": "ms"}, {"measurement": "Selectivity factor (AFT:VFT)", "setting": "[2]", "result": 7}, {"measurement": "AFT (increase in the atrial fibrillation threshold)", "setting": "[2]", "result": 213, "unit": "%"}, {"measurement": "VFT (increase in the ventricular fibrillation threshold)", "setting": "[2]", "result": 29, "unit": "%"}]}
{"smiles": "CCc1ccc(S(=O)(=O)N(CC(C)(C)C)C2c3cc(CC(=O)NCc4ccccc4)ccc3OC(C)(C)C2O)cc1", "note": "(stereo not drawn) [Example 4, N-benzyl-2-{4-[[(4-ethylphenyl)sulfonyl](neopentyl)amino]-3-hydroxy-2,2-dimethyl-3,4-dihydro-2H-chromen-6-yl}acetamide]", "values": [{"measurement": "FRP prolongation", "setting": "[1]", "result": 17, "unit": "ms"}, {"measurement": "Selectivity factor (AFT:VFT)", "setting": "[2]", "result": 12}, {"measurement": "AFT (increase in the atrial fibrillation threshold)", "setting": "[2]", "result": 226, "unit": "%"}, {"measurement": "VFT (increase in the ventricular fibrillation threshold)", "setting": "[2]", "result": 19, "unit": "%"}]}
{"smiles": "CC1(C)Oc2ccc(CC(=O)NC3CCCc4ccccc43)cc2C(NS(=O)(=O)c2cccc(F)c2)C1O", "note": "(mixture of isomers) [Example 13]", "values": [{"measurement": "Increase in the fluorescent intensity (% margatoxin)", "setting": "Kv 1.3-potassium channel", "result": 53, "unit": "% margatoxin"}, {"measurement": "FRP prolongation", "setting": "[1]", "result": 28, "unit": "ms"}]}
{"smiles": "CCc1ccc(S(=O)(=O)N(CC(C)(C)C)[C@H]2c3cc(CC(=O)NCc4ccccc4)ccc3OC(C)(C)[C@@H]2O)cc1", "note": "[Example 8]", "values": [{"measurement": "FRP prolongation", "setting": "[1]", "result": 17, "unit": "ms"}]}
